Measured values taken from patent US10183914B2 (BAYER CROPSCIENCE AKTIENGESELLSCHAFT, priority 2014, dated 2019).
Read-outs that look alike come from different tables or passages of the source.

Assays:
[1] = logp (HCOOH), physicochemical characterization
[2] = system: Oryza sativa; assay: Pre-emergence herbicidal effect and crop plant compatibility; type: in vivo; conditions: 3 weeks
Outline: (§1)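 Seeds sown in sandy loam in wood-fiber pots and covered with soil; compounds formulated as WP or EC applied to the soil surface as aqueous suspension or emulsion at 600 to 800 L/ha water with 0.2% wetting agent. Greenhouse growth; visual damage scored after 3 weeks versus untreated controls (0–100%).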

[3] = system: Triticum aestivum (spring); assay: as above; type: in vivo; conditions: 3 weeks
Outline: as §1

[4] = system: Zea mays; assay: as above; type: in vivo; conditions: 3 weeks
Outline: as §1

[5] = system: Abutilon theophrasti; assay: Pre-emergence herbicidal effect; type: in vivo; conditions: 3 weeks
Outline: as §1

[6] = system: Matricaria inodora; assay: Pre-emergence herbicidal effect; type: in vivo; conditions: 3 weeks
Outline: as §1

[7] = system: Alopecurus myosuroides; assay: Pre-emergence herbicidal effect; type: in vivo; conditions: 3 weeks
Outline: as §1

[8] = system: Amaranthus retroflexus; assay: Pre-emergence herbicidal effect; type: in vivo; conditions: 3 weeks
Outline: as §1

[9] = system: Echinochloa crus-galli; assay: Pre-emergence herbicidal effect; type: in vivo; conditions: 3 weeks
Outline: as §1

[10] = system: Lolium multiflorum; assay: Pre-emergence herbicidal effect; type: in vivo; conditions: 3 weeks
Outline: as §1

[11] = system: Polygonum convolvulus; assay: Pre-emergence herbicidal effect; type: in vivo; conditions: 3 weeks
Outline: as §1

[12] = system: Setaria viridis; assay: Pre-emergence herbicidal effect; type: in vivo; conditions: 3 weeks
Outline: as §1

[13] = system: Stellaria media; assay: Pre-emergence herbicidal effect; type: in vivo; conditions: 3 weeks
Outline: as §1

[14] = system: Veronica persica; assay: Pre-emergence herbicidal effect; type: in vivo; conditions: 3 weeks
Outline: as §1

[15] = system: Viola tricolor; assay: Pre-emergence herbicidal effect; type: in vivo; conditions: 3 weeks
Outline: as §1

[16] = system: Oryza sativa; assay: Post-emergence herbicidal effect and crop plant compatibility; type: in vivo; conditions: visual scoring after about 3 weeks
Description: (§2) Seeds of monocotyledonous and dicotyledonous weed and crop plants are laid out in sandy loam in wood-fiber pots, covered with soil and cultivated in a greenhouse under good growth conditions. 2 to 3 weeks after sowing, the test plants are treated at the one-leaf stage. The compounds of the invention, formulated in the form of wettable powders (WP) or as emulsion concentrates (EC), are then sprayed onto the green parts of the plants as aqueous suspension or emulsion at a water application rate equating to 600 to 800 L/ha with addition of 0.2% wetting agent. After the trial plants have been left to stand in a greenhouse under optimal growth conditions for about 3 weeks, the efficacy of the formulations is scored visually in comparison to untreated controls (herbicidal action in percent (%): 100% efficacy=the plants have died, 0% efficacy=like control plants).

[17] = system: Triticum aestivum (spring); assay: as above; type: in vivo; conditions: visual scoring after about 3 weeks
Description: as §2

[18] = system: Zea mays; assay: as above; type: in vivo; conditions: visual scoring after about 3 weeks
Description: as §2

[19] = system: Echinochloa crus-galli; assay: Post-emergence herbicidal effect; type: in vivo; conditions: visual scoring after about 3 weeks
Description: as §2

[20] = system: Lolium multiflorum; assay: Post-emergence herbicidal effect; type: in vivo; conditions: 320 g/ha, visual scoring after about 3 weeks
Description: as §2

[21] = system: Setaria viridis; assay: Post-emergence herbicidal effect; type: in vivo; conditions: scoring after about 3 weeks
Description: as §2

[22] = system: Cyperus esculentus; assay: Pre-emergence herbicidal effect; type: in vivo; conditions: 1280 g/ha, 3 weeks
Outline: as §1

[23] = system: Ipomoea purpurea; assay: Pre-emergence herbicidal effect; type: in vivo; conditions: 3 weeks
Outline: as §1

[24] = system: Ipomoea purpurea; assay: Post-emergence herbicidal effect; type: in vivo; conditions: 320 g/ha (dose by row order of upper half), scoring after about 3 weeks
Description: as §2

[25] = system: Avena fatua; assay: Pre-emergence herbicidal effect; type: in vivo; conditions: 3 weeks
Outline: as §1

[26] = 320 g/ha (dose by row order of upper half)

SMILES | logp (HCOOH) [1] | TRZAS herbicidal activity in percent ([3]; 320 g/ha) | ZEAMX herbicidal activity in percent ([4]; 320 g/ha) | MATIN herbicidal activity in percent ([6]; 320 g/ha) | TRZAS herbicidal activity in percent ([3]; 80 g/ha) | ZEAMX herbicidal activity in percent ([4]; 80 g/ha) | ALOMY herbicidal activity in percent ([7]; 320 g/ha) | AMARE herbicidal activity in percent ([8]; 320 g/ha) | ECHCG herbicidal activity in percent ([9]; 320 g/ha) | LOLMU herbicidal activity in percent ([10]; 320 g/ha) | MATIN herbicidal activity in percent ([6]; 80 g/ha) | POLCO herbicidal activity in percent ([11]; 320 g/ha) | SETVI herbicidal activity in percent ([12]; 320 g/ha) | STEME herbicidal activity in percent ([13]; 80 g/ha) | STEME herbicidal activity in percent ([13]; 320 g/ha) | VERPE herbicidal activity in percent ([14]; 80 g/ha) | VERPE herbicidal activity in percent ([14]; 320 g/ha) | VIOTR herbicidal activity in percent ([15]; 320 g/ha) | post-emergence efficacy ORYSA ([16]; 320 g/ha) | post-emergence efficacy LOLMU [20] | further results
Cc1ccc2c(c1)C(Nc1ncc3c(n1)CCCC3=O)CO2 (racemic) [2.117] | oily; logp (HCOOH): 2.52; 1H-NMR (CDCl3, 400 MHZ, δ in ppm): 2.10 (m, 2H, 2H | 0% | 20% | 100% |  |  |  |  |  |  |  |  |  |  |  |  |  |  |  |  | ORYSA herbicidal activity in percent ([2]; 320 g/ha): 0%; ABUTH herbicidal activity in percent ([5]; 320 g/ha): 80%
Cc1cccc2c1OCC[C@H]2Nc1ncc2c(n1)CCCC2=O [2.100] |  | 10% | 10% | 100% | 0% | 0% | 80% | 100% | 100% | 100% | 100% | 90% | 100% | 100% | 100% | 100% | 100% | 100% | 0% | 100% | ABUTH herbicidal activity in percent ([5]; 320 g/ha): 90%; AMARE herbicidal activity in percent ([8]; 80 g/ha): 100%; ECHCG herbicidal activity in percent ([9]; 80 g/ha): 100%; POLCO herbicidal activity in percent ([11]; 80 g/ha): 90%; SETVI herbicidal activity in percent ([12]; 80 g/ha): 100%; VIOTR herbicidal activity in percent ([15]; 80 g/ha): 100%; post-emergence efficacy ORYSA ([16]; 80 g/ha): 0%; post-emergence efficacy TRZAS ([17]; 80 g/ha): 10%; post-emergence efficacy TRZAS ([17]; 320 g/ha): 20%; post-emergence efficacy ZEAMX ([18]; 80 g/ha): 10%; post-emergence efficacy ZEAMX ([18]; 320 g/ha): 10%; post-emergence efficacy ECHCG ([19]; 80 g/ha): 100%; post-emergence efficacy ECHCG ([19]; 320 g/ha): 100%; post-emergence efficacy SETVI ([21]; 80 g/ha (dose by row order of upper half)): 90%; post-emergence efficacy SETVI [21, 26]: 90%
O=C1CC(c2ccccc2F)Cc2nc(N[C@@H]3CCCc4ccccc43)ncc21 (some centres unmarked) [2.93] | oily; logp (HCOOH): 4.38; 1H-NMR (CDCl3, 400 MHZ, δ in ppm): 1.95 (m, 3H, 2H |  |  |  |  |  |  |  |  |  |  |  |  |  |  |  |  |  |  |  | ORYSA herbicidal activity in percent ([2]; 1280 g/ha): 20%; TRZAS herbicidal activity in percent ([3]; 1280 g/ha): 0%; ZEAMX herbicidal activity in percent ([4]; 1280 g/ha): 0%; AMARE herbicidal activity in percent ([8]; 1280 g/ha): 80%; CYPES herbicidal activity in percent [22]: 100%; PHBPU herbicidal activity in percent ([23]; 1280 g/ha): 90%; STEME herbicidal activity in percent ([13]; 1280 g/ha): 100%; VERPE herbicidal activity in percent ([14]; 1280 g/ha): 100%; VIOTR herbicidal activity in percent ([15]; 1280 g/ha): 80%
Cc1ccc2c(c1)[C@H](Nc1ncc3c(n1)CCCC3=O)[C@@H](C)C2 [2.118] | oily; logp (HCOOH): 4.51; 1H-NMR (CDCl3, 400 MHZ, δ in ppm): 1.25 (d, 3H, 3H |  | 0% | 100% | 0% | 0% | 90% | 100% | 100% | 100% | 90% | 100% | 100% | 100% | 100% | 100% | 100% | 100% | 0% | 80% | ORYSA herbicidal activity in percent ([2]; 80 g/ha): 10%; ORYSA herbicidal activity in percent ([2]; 320 g/ha): 10%; AMARE herbicidal activity in percent ([8]; 80 g/ha): 100%; LOLMU herbicidal activity in percent ([10]; 80 g/ha): 80%; SETVI herbicidal activity in percent ([12]; 80 g/ha): 100%; VIOTR herbicidal activity in percent ([15]; 80 g/ha): 100%; post-emergence efficacy ORYSA ([16]; 80 g/ha): 0%; post-emergence efficacy TRZAS ([17]; 80 g/ha): 0%; post-emergence efficacy ZEAMX ([18]; 80 g/ha): 0%; post-emergence efficacy ZEAMX ([18]; 320 g/ha): 10%; post-emergence efficacy ECHCG ([19]; 320 g/ha): 100%; post-emergence efficacy PHBPU [24]: 100%; post-emergence efficacy SETVI [21, 26]: 80%
CC(C)C1CC(=O)c2cnc(N[C@@H]3CCc4ccccc43)nc2C1 (some centres unmarked) [2.103] |  | 0% | 0% | 100% | 0% | 0% | 80% | 100% | 100% | 90% | 100% |  |  | 100% | 100% | 100% | 100% | 100% | 0% | 80% | ORYSA herbicidal activity in percent ([2]; 80 g/ha): 0%; ORYSA herbicidal activity in percent ([2]; 320 g/ha): 0%; AMARE herbicidal activity in percent ([8]; 80 g/ha): 100%; ECHCG herbicidal activity in percent ([9]; 80 g/ha): 90%; post-emergence efficacy ORYSA ([16]; 80 g/ha): 0%; post-emergence efficacy TRZAS ([17]; 80 g/ha): 10%; post-emergence efficacy TRZAS ([17]; 320 g/ha): 20%; post-emergence efficacy ZEAMX ([18]; 80 g/ha): 0%; post-emergence efficacy ZEAMX ([18]; 320 g/ha): 0%
CC(=O)c1cnc(NC2CCOc3c(C)cccc32)nc1 (racemic) [1.7] |  | 0% | 20% | 100% | 0% | 0% | 100% | 100% | 90% | 100% | 90% | 90% | 90% | 80% | 100% | 100% | 100% | 100% |  |  | logp (HCOOH) ([1]; HCOOH): solid; m.p.: 167-168° C.; logp (HCOOH): 2.54; 1H-NMR (CDCl3, 400 MHZ, δ in; ALOMY herbicidal activity in percent ([7]; 80 g/ha): 80%; PHBPU herbicidal activity in percent ([23]; 320 g/ha): 100%
O=C1CCCc2nc(N[C@@H]3CCOc4c(F)cccc43)ncc21 [2.19] | oily; logp (HCOOH): 2.29; 1H-NMR (CDCl3, 400 MHZ, δ in ppm): 2.15 (m, 3H, 2H | 0% | 10% | 100% |  |  | 100% | 100% | 100% | 100% |  | 100% | 100% |  | 100% |  | 100% | 100% | 20% | 100% | AVEFA herbicidal activity in percent ([25]; 320 g/ha): 90%; post-emergence efficacy TRZAS ([17]; 320 g/ha): 20%; post-emergence efficacy ECHCG ([19]; 320 g/ha): 100%; post-emergence efficacy PHBPU [24]: 80%
CC(=O)c1cnc(NC2CCOc3ccccc32)nc1C (centres unmarked) [1.83, 1-[2-(3,4-Dihydro-2H-chromen-4-ylamino)-4-methylpyrimidin-5-yl]ethanone] |  |  |  |  |  |  |  |  |  |  |  |  |  |  |  |  |  |  |  |  | chromatographic logP ([1]; HCOOH (formic acid)): 2.44; ABUTH herbicidal activity in percent ([5]; 1280 g/ha): 100%; ALOMY herbicidal activity in percent ([7]; 1280 g/ha): 100%; AMARE herbicidal activity in percent ([8]; 1280 g/ha): 100%; AVEFA herbicidal activity in percent ([25]; 1280 g/ha): 90%; ECHCG herbicidal activity in percent ([9]; 1280 g/ha): 100%; PHBPU herbicidal activity in percent ([23]; 1280 g/ha): 100%; LOLMU herbicidal activity in percent ([10]; 1280 g/ha): 100%; MATIN herbicidal activity in percent ([6]; 1280 g/ha): 100%; POLCO herbicidal activity in percent ([11]; 1280 g/ha): 100%; SETVI herbicidal activity in percent ([12]; 1280 g/ha): 100%; STEME herbicidal activity in percent ([13]; 1280 g/ha): 100%; VERPE herbicidal activity in percent ([14]; 1280 g/ha): 100%; VIOTR herbicidal activity in percent ([15]; 1280 g/ha): 100%
